Our source for the IC50 values is patent US20230117034A1, “PYRAZOLOTRIAZINES” (Bayer Aktiengesellschaft, priority 2019, published 2023).

The subject of test [1] is MDA-MB-231, human breast cancer cells. Nature of the test: Proliferation assay MDA-MB-231 (crystal violet, 4 days). The class given is cell-based. Particulars: MDA-MB-231 cells, median, read-out: Prolif-MDA MB-231, IC50-[mol/l] (median). The method in brief: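 Plated 4,000 cells/well, 10% FCS; 24 h later treated 0.01-10 µmol/L cpd (DMSO 0.1%), 4 d. Fix glutaraldehyde, stain 0.1% crystal violet pH 3.0, elute acetic acid, A595. Normalized to t0 plate/untreated; 4-param IC50.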

Test [2] relates to BRCA1 mRNA expression in MDA-MB-231 cells. Description: qRT-PCR assay: BRCA1 mRNA expression in MDA-MB-231. As to conditions: median, read-out: RTqPCR-MDA-MB-231, IC50, BRCA1 (median). It is filed as cell-based, human. The method in brief:
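Read-out is RT-qPCR with expression normalised to the GAPDH housekeeping gene. Before RNA isolation, plated cells (200,000 per well, 24 h attachment) received test substances continuously over 24 h, and 600 ng of RNA served as cDNA template.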
A general note: In qPCR the cycle at which signal appears reflects the starting amount.

In another test the target is CDK12/CycK (Homo sapiens, UniProt Q9NYV4). Description: CDK12/CycK high ATP kinase assay (TR-FRET, 2 mM ATP). As to conditions: 2 mM ATP (high ATP); median; read-out: CDK12/CyclinK, 2 mM ATP (high ATP), IC50-[mol/l] (median). The class given is biochemical. Summed up:
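His-tagged human CDK12/CycK (~0.75 nM) pre-incubated 15 min with compound, then 60 min at 22 °C with 2 mM ATP and 1 µM biotinylated peptide (HEPES pH 7.5, 20 mM MgCl2). EDTA stop; phospho-Ser62 antibody/Eu anti-rabbit and streptavidin-XL665 TR-FRET, 665/620 nm ratio normalised to give IC50.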
On the technique in general: Time-resolved FRET reads energy transfer from a long-lived donor to a nearby acceptor.

The mark [3] stands for this setting: Homo sapiens, MDA-MB-231, Inhibition of BRCA1 mRNA expression in MDA-MB-231 cells.

Like-named read-outs stand apart in the source and are kept apart here.

Sequence of CDK12/CycK (Q9NYV4 with tags, fused parts or gaps): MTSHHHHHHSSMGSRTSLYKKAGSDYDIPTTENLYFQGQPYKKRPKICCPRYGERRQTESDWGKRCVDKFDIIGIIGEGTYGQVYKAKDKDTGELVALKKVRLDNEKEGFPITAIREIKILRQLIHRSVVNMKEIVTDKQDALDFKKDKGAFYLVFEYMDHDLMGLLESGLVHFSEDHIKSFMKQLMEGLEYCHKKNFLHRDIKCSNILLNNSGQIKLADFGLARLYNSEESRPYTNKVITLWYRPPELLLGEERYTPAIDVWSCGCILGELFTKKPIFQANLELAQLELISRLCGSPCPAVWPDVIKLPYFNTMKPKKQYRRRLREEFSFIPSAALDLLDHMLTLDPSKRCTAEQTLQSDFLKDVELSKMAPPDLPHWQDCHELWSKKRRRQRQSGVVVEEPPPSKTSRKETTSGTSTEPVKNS
Sequence of CDK12/CycK (O75909 1-300 partner limits assumed): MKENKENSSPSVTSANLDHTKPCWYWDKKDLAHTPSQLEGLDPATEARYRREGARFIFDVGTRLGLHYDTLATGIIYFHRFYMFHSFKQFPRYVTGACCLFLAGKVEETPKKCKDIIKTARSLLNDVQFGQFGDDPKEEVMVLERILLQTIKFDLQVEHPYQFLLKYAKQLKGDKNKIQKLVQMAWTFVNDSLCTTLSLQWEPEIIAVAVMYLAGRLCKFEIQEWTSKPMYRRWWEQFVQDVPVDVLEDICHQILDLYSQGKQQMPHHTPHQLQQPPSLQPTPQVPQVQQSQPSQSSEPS

For the compound `CN(CC(C)(C)O)c1nc(NCc2nc3cc(F)c(Cl)cc3[nH]2)n2ncc(Br)c2n1` [Example 338, 1-[(8-bromo-4-{[(6-chloro-5-fluoro-1H-benzimidazol-2-yl)methyl]amino}pyrazolo[1,5-a][1,3,5]triazin-2-yl)(methyl)amino]-2-methylpropan-2-ol], the IC50 in test [1] (Homo sapiens, MDA-MB-231, 96 h) came to 3.1 nM; in test [2] (setting [3]) it was 1.3 nM; at CDK12/CycK, 1180 nM.
For `CN1CCN(c2nc(NCc3nc4c(F)c(Cl)ccc4[nH]3)n3ncc(Br)c3n2)CC1` [Example 373, 8-bromo-N-[(5-chloro-4-fluoro-1H-benzimidazol-2-yl)methyl]-2-(4-methylpiperazin-1-yl)pyrazolo[1,5-a][1,3,5]triazin-4-amine] the same measures were 3.33 nM, 1.27 nM and 3060 nM.
Turning to `Cc1cc2nc(CNc3nc(N4CCOCC4)nc4c(Br)cnn34)[nH]c2cc1C` [Example 340, 8-bromo-N-[(5,6-dimethyl-1H-benzimidazol-2-yl)methyl]-2-(morpholin-4-yl)pyrazolo[1,5-a][1,3,5]triazin-4-amine], the IC50 in test [1] (Homo sapiens, MDA-MB-231, 96 h) amounted to 4.36 nM; in test [2] (setting [3]) it was 8.16 nM; at CDK12/CycK it was 618 nM.
For `Fc1cc2nc(CNc3nc(N4CCOCC4)nc4c(Br)cnn34)[nH]c2cc1F` [Example 341, 8-bromo-N-[(5,6-difluoro-1H-benzimidazol-2-yl)methyl]-2-(morpholin-4-yl)pyrazolo[1,5-a][1,3,5]triazin-4-amine], in that order: 3.73 nM, 5.13 nM and 2220 nM.
In the case of `Brc1cnn2c(NCc3nc4ccccc4[nH]3)nc(N3CC4CCC(C3)O4)nc12` [Example 351, N-[(1H-benzimidazol-2-yl)methyl]-8-bromo-2-(8-oxa-3-azabicyclo[3.2.1]octan-3-yl)pyrazolo[1,5-a][1,3,5]triazin-4-amine], the IC50 worked out at 93.9 nM in test [1] (Homo sapiens, MDA-MB-231, 96 h); 61.6 nM in test [2] (setting [3]); 9350 nM at CDK12/CycK.
For `Fc1ccc2[nH]c(CNc3nc(N4CC5CCC(C4)N5)nc4c(Cl)cnn34)nc2c1F.O=CO` [Example 360, formic acid 8-chloro-2-(3,8-diazabicyclo[3.2.1]octan-3-yl)-N-[(4,5-difluoro-1H-benzimidazol-2-yl)methyl]pyrazolo[1,5-a][1,3,5]triazin-4-amine] the same measures were 5.67 nM, 1.03 nM and 4010 nM.
With `Fc1cc2nc(CNc3nc(N4CC5CCC(C4)N5)nc4c(Br)cnn34)[nH]c2cc1F` [Example 355, 8-bromo-2-(3,8-diazabicyclo[3.2.1]octan-3-yl)-N-[(5,6-difluoro-1H-benzimidazol-2-yl)methyl]pyrazolo[1,5-a][1,3,5]triazin-4-amine], the IC50 in test [1] (Homo sapiens, MDA-MB-231, 96 h) was found to be 3.2 nM; in test [2] (setting [3]), 1.41 nM; at CDK12/CycK, 4180 nM.
With `CN(CC(C)(C)O)c1nc(NCc2nc3cc(C(F)(F)F)ccc3[nH]2)n2ncc(Br)c2n1` [Example 345, 1-{[8-bromo-4-({[5-(trifluoromethyl)-1H-benzimidazol-2-yl]methyl}amino)pyrazolo[1,5-a][1,3,5]triazin-2-yl](methyl)amino}-2-methylpropan-2-ol], the IC50 in test [1] (Homo sapiens, MDA-MB-231, 96 h) turned out to be 3.44 nM; in test [2] (setting [3]), 2.83 nM; on CDK12/CycK, 661 nM.
Consider `Brc1cnn2c(NCc3nc4ccccc4[nH]3)nc(N3C[C@H]4CC[C@@H]3CN4)nc12` (single isomer, unassigned) [Example 335, N-[(1H-benzimidazol-2-yl)methyl]-8-bromo-2-{[1R or S-(1R*,4R*)]-2,5-diazabicyclo[2.2.2]octan-2-yl}pyrazolo[1,5-a][1,3,5]triazin-4-amine], for which the IC50 in test [1] was 10.5 nM; in test [2] (Inhibition of BRCA1 mRNA expression in MDA-MB-231 cells), 12.7 nM; on CDK12/CycK, 6650 nM.
On to `Brc1cnn2c(NCc3nc4ccccc4[nH]3)nc(N3CCN4CCC3C4)nc12` (stereo not drawn) [Example 350, N-[(1H-benzimidazol-2-yl)methyl]-8-bromo-2-(1,4-diazabicyclo[3.2.1]octan-4-yl)pyrazolo[1,5-a][1,3,5]triazin-4-amine], for which the IC50 in test [1] (Homo sapiens, MDA-MB-231, 96 h) worked out at 13.7 nM; in test [2] (setting [3]) it was 13.7 nM; on CDK12/CycK it was 7800 nM.
With `CN1C2CCC1CN(c1nc(NCc3nc4c(F)c(F)ccc4[nH]3)n3ncc(C(F)(F)F)c3n1)C2` [Example 356, N-[(4,5-difluoro-1H-benzimidazol-2-yl)methyl]-2-(8-methyl-3,8-diazabicyclo[3.2.1]octan-3-yl)-8-(trifluoromethyl)pyrazolo[1,5-a][1,3,5]triazin-4-amine], the IC50 came to 5.25 nM in test [1] (Homo sapiens, MDA-MB-231, 96 h); 5.05 nM in test [2] (setting [3]); 4910 nM at CDK12/CycK.
For `Fc1c(Cl)ccc2[nH]c(CNc3nc(N4CCOCC4)nc4c(Br)cnn34)nc12` [Example 372, 8-bromo-N-[(5-chloro-4-fluoro-1H-benzimidazol-2-yl)methyl]-2-(morpholin-4-yl)pyrazolo[1,5-a][1,3,5]triazin-4-amine], in that order: 4.28 nM, 2.16 nM and 269 nM.
For `Cc1cc2nc(CNc3nc(N4CCN(C)CC4)nc4c(Br)cnn34)[nH]c2cc1C` [Example 342, 8-bromo-N-[(5,6-dimethyl-1H-benzimidazol-2-yl)methyl]-2-(4-methylpiperazin-1-yl)pyrazolo[1,5-a][1,3,5]triazin-4-amine] the same measures were 1.97 nM, 1.27 nM and 6650 nM.
For `CN1CCN(c2nc(NCc3nc4c(F)c(Cl)ccc4[nH]3)n3ncc(C4CC4)c3n2)CC1` [Example 371, N-[(5-chloro-4-fluoro-1H-benzimidazol-2-yl)methyl]-8-cyclopropyl-2-(4-methylpiperazin-1-yl)pyrazolo[1,5-a][1,3,5]triazin-4-amine], in that order: 7.8 nM, 7.36 nM and 5250 nM.
With `Fc1ccc2[nH]c(CNc3nc(N4CCOCC4)nc4c(Cl)cnn34)nc2c1F` [Example 357], the IC50 turned out to be 10.4 nM in test [1] (Homo sapiens, MDA-MB-231, 96 h); 6.05 nM in test [2] (setting [3]); 1150 nM at CDK12/CycK.
